# Source: paper PMC12920294, “Optimizing uPAR-targeting radiopeptides for improved tissue distribution: progress towards radionuclide therapy” (European Journal of Nuclear Medicine and Molecular Imaging, 2025)
# How the values were obtained:
# [1] = tested on: HEK-uPAR xenograft-bearing mice; conditions: mouse, in vivo
# Method: Single-photon emission computed tomography/computed tomography (SPECT/CT) experiments were performed using a small-animal SPECT/CT camera (NanoSPECT/CTTM, Mediso Medical Imaging Systems, Budapest, Hungary) as described previously (Supplementary Material). HEK-uPAR xenografted nude mice were scanned at 1 h, 4 h, 24 h […] after injection of the respective radiopeptide (25 MBq, 0.5 nmol, in 100 μL 0.9% NaCl containing 0.05% bovine serum albumin (BSA)) The images were prepared using VivoQuant post-processing software (version 3.5, inviCRO Imaging Services and Software, Boston, USA). A Gauss post-reconstruction filter (full width at half maximum, 1.0 mm) was applied and the scale of activity was set as indicated on the images (minimum value = 0.2 Bq/voxel, maximum value = 20 Bq/voxel). Methods: SPECT/CT experiments were performed with CD1 nude mice (Crl:CD1-Foxn1^nu) approximately 3-9 weeks after HEK-uPAR cell inoculation. The mice were scanned 1 h, 4 h and 24 h post injection (p.i.) of the respective radiopeptide (25 MBq, 0.5 nmol, 100 μL, diluted in 0.9% NaCl containing 0.05% bovine serum albumin (BSA)). Imaging studies were performed using a four-head, multiplexing, multi-pinhole small-animal SPECT/CT camera (NanoSPECT/CT^TM, Mediso Medical Imaging Systems, Budapest, Hungary). Each head was outfitted with a tungsten-based aperture of nine 1.4 mm-diameter pinholes and a thickness of 10 mm. CT scans of 7-9 min duration were followed by SPECT scans of 45-50 min. The images were acquired using Nucline Software (version 10.2, Mediso Ltd., Budapest, Hungary). The real-time CT reconstruction used a cone-beam filtered backprojection. The reconstruction of SPECT data was performed with HiSPECT software (version 1.4.3049, […] GmbH, Göttingen, Germany) using γ-energies of 56.1 keV (± 10%), 112.9 keV (± 10%) and 208.4 keV (± 10%) for lutetium-177. The images were prepared using VivoQuant post-processing software (version 3.5, inviCRO Imaging Services and Software, Boston, USA). A Gauss post-reconstruction filter (full width at half maximum, 1.0 mm) was applied and the scale of activity was set as indicated on the images (minimum value = 0.2 Bq/voxel, maximum value = 20 Bq/voxel).
# human uPAR = biological target: T1, human uPAR (Homo sapiens, UniProt Q03405); experiment: uPAR-binding affinity, saturation binding on HEK-uPAR cells; conditions: 4 °C
# T1 construct: host or cells: HEK cells transfected with human uPAR (HEK-uPAR)
# Method: To determine the uPAR-binding affinity of the radiopeptides, saturation binding experiments were performed according to a previously published procedure using HEK-uPAR cells in 48-well plates (Supplementary Material). The assay was performed on ice (at 4 °C) to prevent target internalization upon binding of the radiopeptides. The cells were incubated with the radiopeptides in the presence or absence of excess AE105 (40 µM) together with the respective radiopeptides at concentrations ranging between 1 nM and 1600 nM. After removal of the supernatant, the HEK-uPAR cells were rinsed and lysed to be measured using a γ-counter (Wallac Wizard 1480, PerkinElmer). The KD values were determined by plotting the specific binding (values of cell samples incubated without AE105 minus the respective values of samples incubated with AE105) against the molar concentration of the added peptide. A nonlinear regression analysis was performed using GraphPad Prism software (version 10.1.1). The results are reported as average of KD values ± SD of n = 3 independent experiments. Methods: HEK-uPAR cells were seeded in poly-D-lysine-coated 48-well plates (0.25 × 10^6 in 0.5 mL per well) using DMEM culture medium with supplements. The cells were incubated at 37 °C and 5% CO2 overnight to allow adhesion and growth. The well plates with HEK-uPAR cells were placed on ice for the entire experiment to prevent internalization of the radiopeptides. After removal of the medium, the HEK-uPAR cells were rinsed with cold PBS (0.5 mL, pH 7.4) followed by the addition of DMEM culture medium without supplements (450 µL/well) in the presence or absence of AE105 (final concentration 40 µM) as a receptor blocking agent. The cells were incubated for 30 min on ice. The respective radiopeptides (5 MBq/nmol) were diluted in PBS at peptide concentrations 10‒16000 nM. A volume of 50 µL from each dilution was added to each well to obtain peptide concentrations in the range of […]. The assay was performed at 4 °C on ice, to prevent internalization of the radiopeptides. The radiopeptides were incubated on cells for 1 h on a shaker before rinsing twice with PBS (0.5 mL, pH 7.4). Increasing ligand concentrations were used to approximate saturation of the binding sites (Bmax value) at equilibrium. Ligand depletion effects of the ligand concentration in the supernatant of the cell samples were not taken into account. The cells were lysed using an aqueous NaOH solution (1 M, 600 µL) and the lysates were transferred to radioimmunoassay tubes for counting the activity in a γ-counter (Wallac Wizard 1480, PerkinElmer). The KD values were determined by plotting the specific binding (total binding minus unspecific binding) against the molar concentration of the added radiopeptide using GraphPad Prism software (version 10.1.1). The results were then expressed as average ± SD of n = 3 independent experiments.
# T1 sequence (Q03405 23-335): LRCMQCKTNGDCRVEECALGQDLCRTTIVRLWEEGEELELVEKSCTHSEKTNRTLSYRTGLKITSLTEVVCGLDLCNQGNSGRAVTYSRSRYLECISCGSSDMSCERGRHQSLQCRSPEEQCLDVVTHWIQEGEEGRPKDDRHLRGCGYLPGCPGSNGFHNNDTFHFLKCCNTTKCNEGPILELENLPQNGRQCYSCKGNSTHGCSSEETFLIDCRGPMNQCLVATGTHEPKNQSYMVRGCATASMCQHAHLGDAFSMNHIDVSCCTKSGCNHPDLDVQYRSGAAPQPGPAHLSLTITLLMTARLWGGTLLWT
SMILES,SPECT/CT: accumulation in HEK-uPAR xenograft [1],Kd (human uPAR),SPECT/CT: blood retention [1]
"Cc1ccc(CCCC(=O)NCCOCCOCCOCCOCCC(=O)NCCCC[C@H](NC(=O)CN2CCN(CC(=O)O)CCN(CC(=O)O)CCN(CC(=O)O)CC2)C(=O)N[C@@H](CC(=O)O)C(=O)N[C@@H](CC2CCCCC2)C(=O)N[C@@H](Cc2ccccc2)C(=O)N[C@H](CO)C(=O)N[C@H](CCCNC(=N)N)C(=O)N[C@@H](Cc2ccc(O)cc2)C(=O)N[C@@H](CC(C)C)C(=O)N[C@@H](Cc2c[nH]c3ccccc23)C(=O)N[C@@H](CO)C(N)=O)cc1 [[^177Lu]Lu-uPAR-11, metal not drawn]",highest at 1 h p.i. and relatively well retained over the following hours,0.037 ± 0.011 µM,–
"Cc1ccc(CCCC(=O)NCCCCCCCC(=O)NCCCC[C@H](NC(=O)CN2CCN(CC(=O)O)CCN(CC(=O)O)CCN(CC(=O)O)CC2)C(=O)N[C@@H](CC(=O)O)C(=O)N[C@@H](CC2CCCCC2)C(=O)N[C@@H](Cc2ccccc2)C(=O)N[C@H](CO)C(=O)N[C@H](CCCNC(=N)N)C(=O)N[C@@H](Cc2ccc(O)cc2)C(=O)N[C@@H](CC(C)C)C(=O)N[C@@H](Cc2c[nH]c3ccccc23)C(=O)N[C@@H](CO)C(N)=O)cc1 [[^177Lu]Lu-uPAR-12, metal not drawn]",–,0.038 ± 0.009 µM,substantial blood retention was observed over the entire time of investigation
"Cc1ccc(CCCC(=O)NCCOCCOCCOCCOCCC(=O)NC[C@H](NC(=O)CN2CCN(CC(=O)O)CCN(CC(=O)O)CCN(CC(=O)O)CC2)C(=O)N[C@@H](CC(=O)O)C(=O)N[C@@H](CC2CCCCC2)C(=O)N[C@@H](Cc2ccccc2)C(=O)N[C@H](CO)C(=O)N[C@H](CCCNC(=N)N)C(=O)N[C@@H](Cc2ccc(O)cc2)C(=O)N[C@@H](CC(C)C)C(=O)N[C@@H](Cc2c[nH]c3ccccc23)C(=O)N[C@@H](CO)C(N)=O)cc1 [[^177Lu]Lu-uPAR-14, metal not drawn]",almost entirely cleared at 24 h p.i.,0.037 ± 0.007 µM,–
"Cc1ccc(CCCC(=O)NCCOCCOCCOCCC(=O)NCCCC[C@H](NC(=O)CN2CCN(CC(=O)O)CCN(CC(=O)O)CCN(CC(=O)O)CC2)C(=O)N[C@@H](CC(=O)O)C(=O)N[C@@H](CC2CCCCC2)C(=O)N[C@@H](Cc2ccccc2)C(=O)N[C@H](CO)C(=O)N[C@H](CCCNC(=N)N)C(=O)N[C@@H](Cc2ccc(O)cc2)C(=O)N[C@@H](CC(C)C)C(=O)N[C@@H](Cc2c[nH]c3ccccc23)C(=O)N[C@@H](CO)C(N)=O)cc1 [[^177Lu]Lu-uPAR-15, metal not drawn]",highest at 1 h p.i. and relatively well retained over the following hours,0.042 ± 0.003 µM,–
"Cc1ccc(CCCC(=O)NCCOCCOCCOCCOCCC(=O)NCCCC[C@H](NC(=O)CC[C@H](C(=O)O)N2CCN(CC(=O)O)CCN(CC(=O)O)CCN(CC(=O)O)CC2)C(=O)N[C@@H](CC(=O)O)C(=O)N[C@@H](CC2CCCCC2)C(=O)N[C@@H](Cc2ccccc2)C(=O)N[C@H](CO)C(=O)N[C@H](CCCNC(=N)N)C(=O)N[C@@H](Cc2ccc(O)cc2)C(=O)N[C@@H](CC(C)C)C(=O)N[C@@H](Cc2c[nH]c3ccccc23)C(=O)N[C@@H](CO)C(N)=O)cc1 [[^177Lu]Lu-uPAR-17, metal not drawn]",almost entirely cleared at 24 h p.i.,0.031 ± 0.006 µM,–
"Cc1ccc(CCCC(=O)NCCOCCOCCOCCOCCOCCC(=O)NCCCC[C@H](NC(=O)CN2CCN(CC(=O)O)CCN(CC(=O)O)CCN(CC(=O)O)CC2)C(=O)N[C@@H](CC(=O)O)C(=O)N[C@@H](CC2CCCCC2)C(=O)N[C@@H](Cc2ccccc2)C(=O)N[C@H](CO)C(=O)N[C@H](CCCNC(=N)N)C(=O)N[C@@H](Cc2ccc(O)cc2)C(=O)N[C@@H](CC(C)C)C(=O)N[C@@H](Cc2c[nH]c3ccccc23)C(=O)N[C@@H](CO)C(N)=O)cc1 [[^177Lu]Lu-uPAR-18, metal not drawn]",highest at 1 h p.i. and relatively well retained over the following hours,0.033 ± 0.004 µM,–
